According to PubChem BioAssay AID1963865 (Molecular Pharmacology Branch, DTP, NCI, 2024):

System: KRAS PDC multicell spheroid viability
Assay: Anticancer human tumor 825966-067-R-J1-PDC patient-derived colon carcinoma cell line growth inhibition [KRAS2]
Conditions: for IC50: curve of first compound; for viability, T/C: stronger effect = lower value
In short: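 Combination screen of spheroid viability in tumor-cell co-cultures with endothelial (HUVEC) and mesenchymal stem cell stroma. Each agent was tested in half-log dilutions, topping at clinical Cmax or at 10 microM without a known Cmax.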

[1] = second compound 0.1 µM, first compound 0.0316 µM
[2] = second compound 0.1 µM, first compound 0.1 µM
[3] = second compound 0.1 µM, first compound 0.316 µM
[4] = second compound 0.1 µM, first compound 1 µM
[5] = second compound 0.1 µM, first compound 3.16 µM
[6] = second compound 0.1 µM, first compound 10 µM
[7] = second compound 0.316 µM, first compound 0.0316 µM
[8] = second compound 0.316 µM, first compound 0.1 µM
[9] = second compound 0.316 µM, first compound 0.316 µM
[10] = second compound 0.316 µM, first compound 1 µM
[11] = second compound 0.316 µM, first compound 3.16 µM
[12] = second compound 0.316 µM, first compound 10 µM
[13] = second compound 1 µM, first compound 0.0316 µM
[14] = second compound 1 µM, first compound 0.1 µM
[15] = second compound 1 µM, first compound 0.316 µM
[16] = second compound 1 µM, first compound 1 µM
[17] = second compound 1 µM, first compound 3.16 µM
[18] = second compound 1 µM, first compound 10 µM
[19] = second compound 3.16 µM, first compound 0.0316 µM
[20] = second compound 3.16 µM, first compound 0.1 µM
[21] = second compound 3.16 µM, first compound 0.316 µM
[22] = second compound 3.16 µM, first compound 1 µM
[23] = second compound 3.16 µM, first compound 3.16 µM
[24] = second compound 3.16 µM, first compound 10 µM
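Note: spheroids exposed to compounds for 7 days.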
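Throughout, for viability, T/C: 100% = DMSO vehicle control viability.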

Compound | IC50 (second compound 0.1 µM) [µM] | IC50 (second compound 0.316 µM) [µM] | IC50 (second compound 1 µM) [µM] | IC50 (second compound 3.16 µM) [µM] | viability, T/C [1] [%] | viability, T/C [2] [%] | viability, T/C [3] [%] | viability, T/C [4] [%] | viability, T/C [5] [%] | viability, T/C [6] [%] | viability, T/C [7] [%] | viability, T/C [8] [%] | viability, T/C [9] [%] | viability, T/C [10] [%] | viability, T/C [11] [%] | viability, T/C [12] [%] | viability, T/C [13] [%] | viability, T/C [14] [%] | viability, T/C [15] [%] | viability, T/C [16] [%] | further results
COC(=O)c1ccc2c(C(=Nc3ccc(N(C)C(=O)CN4CCN(C)CC4)cc3)c3ccccc3)c(O)[nH]c2c1 + C=CC(=O)N1CCN(c2nc(OCC3CCCN3C)nc3c2CCN(c2cccc4cccc(C)c24)C3)CC1CC#N | 0.843 | 0.54 | 0.5 | 0.131 | 107 | 84.5 | 96.4 | 42 | 0.21 | 0.13 | 75.4 | 83.7 | 95.8 | 9.82 | 0.13 | 0.12 | 78.8 | 87.2 | 73.9 | 13.7 | IC50 (second compound 0.0316 µM): 0.591 µM; viability, T/C (second compound 0.0316 µM, first compound 0.0316 µM): 78.2%; viability, T/C (second compound 0.0316 µM, first compound 0.1 µM): 94.9%; viability, T/C (second compound 0.0316 µM, first compound 0.316 µM): 75%; viability, T/C (second compound 0.0316 µM, first compound 1 µM): 28.2%; viability, T/C (second compound 0.0316 µM, first compound 3.16 µM): 0.37%; viability, T/C (second compound 0.0316 µM, first compound 10 µM): 0.12%; viability, T/C [17]: 1.46%; viability, T/C [18]: 0.22%; viability, T/C [19]: 87%; viability, T/C [20]: 27.7%; viability, T/C [21]: 65.5%; viability, T/C [22]: 10.5%; viability, T/C [23]: 0.29%; viability, T/C [24]: 0.2%
O=C(c1cc(Cc2n[nH]c(=O)c3ccccc23)ccc1F)N1CCN(C(=O)C2CC2)CC1 + C=CC(=O)N1CCN(c2nc(=O)n(-c3c(C)ccnc3C(C)C)c3nc(-c4c(O)cccc4F)c(F)cc23)C(C)C1 | > 10 | > 10 | > 10 | > 10 | 97.5 | 89.9 | 107 | 71.9 | 71.1 | 77.9 | 90.2 | 96.8 | 77.2 | 81.9 | 65.7 | 80.9 | 100 | 84.3 | 77.8 | 62.8 | IC50 (second compound 10 µM): > 10 µM; viability, T/C [17]: 70.8%; viability, T/C [18]: 88.1%; viability, T/C [19]: 68.3%; viability, T/C [20]: 90.3%; viability, T/C [21]: 78.4%; viability, T/C [22]: 75.8%; viability, T/C [23]: 73.3%; viability, T/C [24]: 70.4%; viability, T/C (second compound 10 µM, first compound 0.0316 µM): 96.4%; viability, T/C (second compound 10 µM, first compound 0.1 µM): 82.3%; viability, T/C (second compound 10 µM, first compound 0.316 µM): 90.8%; viability, T/C (second compound 10 µM, first compound 1 µM): 72%; viability, T/C (second compound 10 µM, first compound 3.16 µM): 66.5%; viability, T/C (second compound 10 µM, first compound 10 µM): 91.7%
